Values after ≈ are worked out from the molar mass of the structure shown.
System: Pseudomonas aeruginosa
Assay: Antimicrobial activity against Pseudomonas aeruginosa 1611-09
Type: functional

Compound | MIC90
C[C@@H](O)[C@H]1C(=O)N2C(C(=O)O)=C(S[C@@H]3CN[C@H](C(=O)N(C)C)C3)[C@H](C)[C@H]12 [MEROPENEM] | 4 µg/mL (≈ 10.4 µM)

System: Pseudomonas aeruginosa
Assay: Antimicrobial activity against Pseudomonas aeruginosa 1567-05
Type: functional

Compound | MIC90
C[C@@H](O)[C@H]1C(=O)N2C(C(=O)O)=C(S[C@@H]3CN[C@H](C(=O)N(C)C)C3)[C@H](C)[C@H]12 [MEROPENEM] | 0.5 µg/mL (≈ 1.3 µM)

System: Pseudomonas aeruginosa
Assay: Antimicrobial activity against Pseudomonas aeruginosa 1564-05
Type: functional

Compound | MIC90
C[C@@H](O)[C@H]1C(=O)N2C(C(=O)O)=C(S[C@@H]3CN[C@H](C(=O)N(C)C)C3)[C@H](C)[C@H]12 [MEROPENEM] | 2 µg/mL (≈ 5.22 µM)

System: Pseudomonas aeruginosa
Assay: Antimicrobial activity against Pseudomonas aeruginosa 1765-00
Type: functional

Compound | MIC90
C[C@@H](O)[C@H]1C(=O)N2C(C(=O)O)=C(S[C@@H]3CN[C@H](C(=O)N(C)C)C3)[C@H](C)[C@H]12 [MEROPENEM] | 2 µg/mL (≈ 5.22 µM)

System: Pseudomonas aeruginosa
Assay: Antimicrobial activity against Pseudomonas aeruginosa PA-4993
Type: functional

Compound | MIC90
C[C@@H](O)[C@H]1C(=O)N2C(C(=O)O)=C(S[C@@H]3CN[C@H](C(=O)N(C)C)C3)[C@H](C)[C@H]12 [MEROPENEM] | > 64 µg/mL

System: Pseudomonas aeruginosa
Assay: Antimicrobial activity against Pseudomonas aeruginosa 1952-00
Type: functional

Compound | MIC90
C[C@@H](O)[C@H]1C(=O)N2C(C(=O)O)=C(S[C@@H]3CN[C@H](C(=O)N(C)C)C3)[C@H](C)[C@H]12 [MEROPENEM] | 2 µg/mL (≈ 5.22 µM)

System: Pseudomonas aeruginosa
Assay: Antimicrobial activity against Pseudomonas aeruginosa PA-4991
Type: functional

Compound | MIC90
C[C@@H](O)[C@H]1C(=O)N2C(C(=O)O)=C(S[C@@H]3CN[C@H](C(=O)N(C)C)C3)[C@H](C)[C@H]12 [MEROPENEM] | 8 µg/mL (≈ 20.9 µM)

System: Pseudomonas aeruginosa
Assay: Antimicrobial activity against Pseudomonas aeruginosa 1513-08
Type: functional

Compound | MIC90
C[C@@H](O)[C@H]1C(=O)N2C(C(=O)O)=C(S[C@@H]3CN[C@H](C(=O)N(C)C)C3)[C@H](C)[C@H]12 [MEROPENEM] | 32 µg/mL (≈ 83.4 µM)

System: Pseudomonas aeruginosa
Assay: Antimicrobial activity against Pseudomonas aeruginosa 1767-00
Type: functional

Compound | MIC90
C[C@@H](O)[C@H]1C(=O)N2C(C(=O)O)=C(S[C@@H]3CN[C@H](C(=O)N(C)C)C3)[C@H](C)[C@H]12 [MEROPENEM] | 0.5 µg/mL (≈ 1.3 µM)

System: Pseudomonas aeruginosa
Assay: Antimicrobial activity against Pseudomonas aeruginosa PA-4997
Type: functional

Compound | MIC90
C[C@@H](O)[C@H]1C(=O)N2C(C(=O)O)=C(S[C@@H]3CN[C@H](C(=O)N(C)C)C3)[C@H](C)[C@H]12 [MEROPENEM] | 64 µg/mL (≈ 167 µM)

System: Pseudomonas aeruginosa
Assay: Antimicrobial activity against Pseudomonas aeruginosa 1752-00
Type: functional

Compound | MIC90
C[C@@H](O)[C@H]1C(=O)N2C(C(=O)O)=C(S[C@@H]3CN[C@H](C(=O)N(C)C)C3)[C@H](C)[C@H]12 [MEROPENEM] | 0.125 µg/mL (≈ 0.326 µM)

System: Pseudomonas aeruginosa
Assay: Antimicrobial activity against Pseudomonas aeruginosa PA-4999
Type: functional

Compound | MIC90
C[C@@H](O)[C@H]1C(=O)N2C(C(=O)O)=C(S[C@@H]3CN[C@H](C(=O)N(C)C)C3)[C@H](C)[C@H]12 [MEROPENEM] | 8 µg/mL (≈ 20.9 µM)

System: Pseudomonas aeruginosa
Assay: Antimicrobial activity against Pseudomonas aeruginosa PA-75
Type: functional

Compound | MIC90
C[C@@H](O)[C@H]1C(=O)N2C(C(=O)O)=C(S[C@@H]3CN[C@H](C(=O)N(C)C)C3)[C@H](C)[C@H]12 [MEROPENEM] | 0.5 µg/mL (≈ 1.3 µM)

System: Pseudomonas aeruginosa
Assay: Antimicrobial activity against Pseudomonas aeruginosa 1515-08
Type: functional

Compound | MIC90
C[C@@H](O)[C@H]1C(=O)N2C(C(=O)O)=C(S[C@@H]3CN[C@H](C(=O)N(C)C)C3)[C@H](C)[C@H]12 [MEROPENEM] | 32 µg/mL (≈ 83.4 µM)

System: Pseudomonas aeruginosa
Assay: Antimicrobial activity against Pseudomonas aeruginosa PA-4624
Type: functional

Compound | MIC90
C[C@@H](O)[C@H]1C(=O)N2C(C(=O)O)=C(S[C@@H]3CN[C@H](C(=O)N(C)C)C3)[C@H](C)[C@H]12 [MEROPENEM] | 0.25 µg/mL (≈ 0.652 µM)

System: Pseudomonas aeruginosa
Assay: Antimicrobial activity against Pseudomonas aeruginosa 1569-05
Type: functional

Compound | MIC90
C[C@@H](O)[C@H]1C(=O)N2C(C(=O)O)=C(S[C@@H]3CN[C@H](C(=O)N(C)C)C3)[C@H](C)[C@H]12 [MEROPENEM] | 0.25 µg/mL (≈ 0.652 µM)

System: Pseudomonas aeruginosa
Assay: Antimicrobial activity against Pseudomonas aeruginosa 1953-00
Type: functional

Compound | MIC90
C[C@@H](O)[C@H]1C(=O)N2C(C(=O)O)=C(S[C@@H]3CN[C@H](C(=O)N(C)C)C3)[C@H](C)[C@H]12 [MEROPENEM] | 2 µg/mL (≈ 5.22 µM)

System: Pseudomonas aeruginosa
Assay: Antimicrobial activity against Pseudomonas aeruginosa 1509-08
Type: functional

Compound | MIC90
C[C@@H](O)[C@H]1C(=O)N2C(C(=O)O)=C(S[C@@H]3CN[C@H](C(=O)N(C)C)C3)[C@H](C)[C@H]12 [MEROPENEM] | > 64 µg/mL

System: Pseudomonas aeruginosa
Assay: Antimicrobial activity against Pseudomonas aeruginosa 1614-09
Type: functional

Compound | MIC90
C[C@@H](O)[C@H]1C(=O)N2C(C(=O)O)=C(S[C@@H]3CN[C@H](C(=O)N(C)C)C3)[C@H](C)[C@H]12 [MEROPENEM] | 4 µg/mL (≈ 10.4 µM)

System: Pseudomonas aeruginosa
Assay: Antimicrobial activity against Pseudomonas aeruginosa 1955-00
Type: functional

Compound | MIC90
C[C@@H](O)[C@H]1C(=O)N2C(C(=O)O)=C(S[C@@H]3CN[C@H](C(=O)N(C)C)C3)[C@H](C)[C@H]12 [MEROPENEM] | 1 µg/mL (≈ 2.61 µM)

System: Pseudomonas aeruginosa
Assay: Antimicrobial activity against Pseudomonas aeruginosa 1760-00
Type: functional

Compound | MIC90
C[C@@H](O)[C@H]1C(=O)N2C(C(=O)O)=C(S[C@@H]3CN[C@H](C(=O)N(C)C)C3)[C@H](C)[C@H]12 [MEROPENEM] | 4 µg/mL (≈ 10.4 µM)

System: Pseudomonas aeruginosa
Assay: Antimicrobial activity against Pseudomonas aeruginosa PA-4990
Type: functional

Compound | MIC90
C[C@@H](O)[C@H]1C(=O)N2C(C(=O)O)=C(S[C@@H]3CN[C@H](C(=O)N(C)C)C3)[C@H](C)[C@H]12 [MEROPENEM] | 32 µg/mL (≈ 83.4 µM)

System: Pseudomonas aeruginosa
Assay: Antimicrobial activity against Pseudomonas aeruginosa 1527-08
Type: functional

Compound | MIC90
C[C@@H](O)[C@H]1C(=O)N2C(C(=O)O)=C(S[C@@H]3CN[C@H](C(=O)N(C)C)C3)[C@H](C)[C@H]12 [MEROPENEM] | 8 µg/mL (≈ 20.9 µM)

System: Pseudomonas aeruginosa
Assay: Antimicrobial activity against Pseudomonas aeruginosa 1526-08
Type: functional

Compound | MIC90
C[C@@H](O)[C@H]1C(=O)N2C(C(=O)O)=C(S[C@@H]3CN[C@H](C(=O)N(C)C)C3)[C@H](C)[C@H]12 [MEROPENEM] | > 64 µg/mL

System: Pseudomonas aeruginosa
Assay: Antimicrobial activity against Pseudomonas aeruginosa 1521-08
Type: functional

Compound | MIC90
C[C@@H](O)[C@H]1C(=O)N2C(C(=O)O)=C(S[C@@H]3CN[C@H](C(=O)N(C)C)C3)[C@H](C)[C@H]12 [MEROPENEM] | > 64 µg/mL

Source: ChEMBL document CHEMBL3217532, “New analyses of MIC90 data to aid antibacterial drug discovery” (2011)
